# Patent publication US5977075A, “N-aroylamino acid amides as endothelin inhibitors” (Novartis AG, priority 1997, dated 1999)
# Legend:
# [1] = target: T1, human ETA (Homo sapiens, UniProt P25101); experiment: Competition binding of [125I] ET-1 to CHO-ETA membranes; details: [125I] ET-1, 2 hours at 37° C.
# T1 construct: expressed in transfected cells; host or cells: CHO (Chinese hamster ovary) cells, membrane preparation
# T1 sequence (P25101 21-427): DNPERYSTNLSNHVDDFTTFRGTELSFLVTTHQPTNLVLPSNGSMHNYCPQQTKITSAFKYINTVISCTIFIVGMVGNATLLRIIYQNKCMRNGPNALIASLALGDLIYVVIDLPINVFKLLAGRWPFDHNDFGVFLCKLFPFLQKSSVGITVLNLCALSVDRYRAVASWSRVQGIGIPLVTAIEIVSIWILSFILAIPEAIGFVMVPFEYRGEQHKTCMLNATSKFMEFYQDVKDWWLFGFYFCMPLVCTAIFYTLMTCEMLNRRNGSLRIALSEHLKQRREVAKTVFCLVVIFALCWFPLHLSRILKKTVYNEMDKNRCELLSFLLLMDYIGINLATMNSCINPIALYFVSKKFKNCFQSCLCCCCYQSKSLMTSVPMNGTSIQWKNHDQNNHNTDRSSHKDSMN
# Protocol: (§1) 1. Binding Studies--ETA and ETB ;
# (§2) Chinese hamster ovary cells expressing human ETA (CHO-ETA) or ETB (CHO-ETB) receptors are cultured in F12 medium (cibcoBRL, Grand Island, N.Y.) containing 10% fetal bovine serum and 1× antibiotic-antimycotic (GibcoBRL). Cells are harvested, then centrifuged, and finally homogenized in buffer containing 1 mM EDTA and […] Tris, pH 8.0. The cell debris is removed by brief centrifugation, and then the supernatant centrifuged again at 50,000×g for 10 minutes. The resulting pellet is resuspended in Hanks' balanced salt solution at a protein concentration of […] and stored in aliquots at -80° C. Competition binding is carried out by in incubating 0.2-1.0 mg of membrane protein from CHO-ETA or CHO-ETB cells with 12,000 cpm [^125 I] ET-1 (New England Nuclear, Boston, Mass.) with or without the competing ligand for 2 hours at 37° C. in a buffer containing 0.2 mg/ml bovine serum albumin, 0.002% Triton X-100, 0.02% NaN3, and […] Tris, pH 7.0. The reaction is terminated by filtration through a cell harvester (Brandel, Gaitherburg, Md.) using GF/C filters. Triplicate samples are carried out in each experiment, and if appropriate, the full dose-response curve for each competing ligand is performed at least three times. […]
# [2] = target: T2, ETB (Canis lupus familiaris, UniProt P56497); experiment: Isolated tissue study, isometric tension, dog saphenous veins; set-up: species or system mongrel dogs; details: antagonist added 30 minutes prior to ET-1 or STX6c
# T2 construct: from tissue; host or cells: saphenous vein segments from mongrel dogs
# T2 sequence (P56497 27-442): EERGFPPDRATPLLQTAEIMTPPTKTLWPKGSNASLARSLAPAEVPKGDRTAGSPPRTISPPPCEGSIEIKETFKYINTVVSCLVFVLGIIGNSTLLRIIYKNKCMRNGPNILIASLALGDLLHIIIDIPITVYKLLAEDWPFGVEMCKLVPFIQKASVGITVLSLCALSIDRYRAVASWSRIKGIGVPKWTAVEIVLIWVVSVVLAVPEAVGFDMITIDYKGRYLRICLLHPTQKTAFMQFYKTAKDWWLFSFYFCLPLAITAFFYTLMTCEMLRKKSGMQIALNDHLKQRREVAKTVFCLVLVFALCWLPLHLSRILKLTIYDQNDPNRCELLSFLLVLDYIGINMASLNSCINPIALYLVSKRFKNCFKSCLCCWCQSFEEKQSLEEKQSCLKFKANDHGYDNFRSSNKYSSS
# Protocol: (§3) 2. Isolated Tissue Studies
# (§4) Studies measuring isometric tension are carried out according to the procedure of Shetty et al. (Biochem. Biophys. Res. Comm. 1993; 191:459-464). Saphenous veins (for antagonism of ETB) are obtained from mongrel dogs which are anesthetized with pentobarbital. Thoracic aortas are obtained from Sprague-Dawley male rats (for antagonism of ETA). Coronary arteries are obtained from porcine hearts. Tissue segments (4-5 mm) from each vascular preparation are equilibrated for 90 minutes during which time the tissues are adjusted to a preload tension of 2 gm, except for the porcine coronary which is adjusted to 4 gm preload. Concentration-response curves are generated by the cumulative addition of the peptides. Antagonists are added 30 minutes prior to the addition of ET-1 or STX6c. Contractions are expressed as a percentage of the response to […] KCl. Relaxation is quantitated by expressing the tension after relaxation as a percent of the tension induced by 1 mM phenylephrine.
# [3] = target: T3, human ETB (Homo sapiens, UniProt P24530); experiment: Competition binding of [125I] ET-1 to CHO-ETB membranes; details: [125I] ET-1, 2 hours at 37° C.
# T3 construct: expressed in transfected cells; host or cells: CHO (Chinese hamster ovary) cells, membrane preparation
# T3 sequence (P24530 27-442): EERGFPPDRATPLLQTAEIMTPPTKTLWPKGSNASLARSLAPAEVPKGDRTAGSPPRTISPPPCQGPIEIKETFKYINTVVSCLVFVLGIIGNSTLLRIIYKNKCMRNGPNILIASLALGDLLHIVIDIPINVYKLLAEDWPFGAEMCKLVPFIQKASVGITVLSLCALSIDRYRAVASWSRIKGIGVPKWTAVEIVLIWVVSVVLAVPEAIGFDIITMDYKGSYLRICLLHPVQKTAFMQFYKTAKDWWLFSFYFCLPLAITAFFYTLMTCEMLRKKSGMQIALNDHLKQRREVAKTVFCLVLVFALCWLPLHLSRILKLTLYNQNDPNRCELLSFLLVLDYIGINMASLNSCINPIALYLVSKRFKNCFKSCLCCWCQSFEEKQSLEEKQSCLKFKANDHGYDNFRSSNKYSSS
# Protocol: as §1, §2
# [4] = target: T4, ETA (Rattus norvegicus, UniProt P26684); experiment: Isolated tissue study, isometric tension, thoracic aorta; set-up: species or system Sprague-Dawley male rats; details: antagonist added 30 minutes prior to ET-1 or STX6c
# T4 construct: from tissue; host or cells: thoracic aorta segments from Sprague-Dawley male rats
# T4 sequence (P26684 21-426): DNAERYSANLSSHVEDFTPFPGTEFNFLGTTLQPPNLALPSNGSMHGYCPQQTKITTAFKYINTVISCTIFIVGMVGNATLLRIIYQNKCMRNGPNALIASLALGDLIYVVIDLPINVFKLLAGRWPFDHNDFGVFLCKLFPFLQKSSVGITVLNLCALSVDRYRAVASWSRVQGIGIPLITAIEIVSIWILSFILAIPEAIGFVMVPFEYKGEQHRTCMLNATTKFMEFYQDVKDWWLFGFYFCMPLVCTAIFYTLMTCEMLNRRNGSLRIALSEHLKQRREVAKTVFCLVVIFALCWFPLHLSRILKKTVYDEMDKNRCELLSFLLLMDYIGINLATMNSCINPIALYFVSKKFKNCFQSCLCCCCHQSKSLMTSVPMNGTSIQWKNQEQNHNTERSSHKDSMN
# Protocol: as §3, §4
smiles,measurement,setting,value
"CCCCS(=O)(=O)NC(=O)C1(NC(=O)[C@@H](Cc2ccc(-n3cccc3)cc2)N(C)C(=O)c2cc(C)cc(C)c2)CC1 [example 1, R-N-[N-3,5-dimethylbenzoyl-N-methyl-3-[4-(1-pyrrolyl)phenyl]alanyl]-1-aminocyclo propane-1-N-(n-butanesulfonyl)carboxamide]",IC50,[1],< 1 nM
same,ET-induced contractile response in dog saphenous veins,[2],inhibit ET-induced contractile response
same,IC50,[3],< 1 nM
same,ET-induced contractile response in thoracic aorta,[4],inhibit ET-induced contractile response
